According to patent publication US20260092061A1, “COMPOUNDS FOR TARGETED PROTEIN DEGRADATION” (Amphista Therapeutics Limited, priority 2022, published 2026):

Biological target: T1, BRD9 (Homo sapiens, UniProt Q9H8M2)
T1 sequence (Q9H8M2 1-597): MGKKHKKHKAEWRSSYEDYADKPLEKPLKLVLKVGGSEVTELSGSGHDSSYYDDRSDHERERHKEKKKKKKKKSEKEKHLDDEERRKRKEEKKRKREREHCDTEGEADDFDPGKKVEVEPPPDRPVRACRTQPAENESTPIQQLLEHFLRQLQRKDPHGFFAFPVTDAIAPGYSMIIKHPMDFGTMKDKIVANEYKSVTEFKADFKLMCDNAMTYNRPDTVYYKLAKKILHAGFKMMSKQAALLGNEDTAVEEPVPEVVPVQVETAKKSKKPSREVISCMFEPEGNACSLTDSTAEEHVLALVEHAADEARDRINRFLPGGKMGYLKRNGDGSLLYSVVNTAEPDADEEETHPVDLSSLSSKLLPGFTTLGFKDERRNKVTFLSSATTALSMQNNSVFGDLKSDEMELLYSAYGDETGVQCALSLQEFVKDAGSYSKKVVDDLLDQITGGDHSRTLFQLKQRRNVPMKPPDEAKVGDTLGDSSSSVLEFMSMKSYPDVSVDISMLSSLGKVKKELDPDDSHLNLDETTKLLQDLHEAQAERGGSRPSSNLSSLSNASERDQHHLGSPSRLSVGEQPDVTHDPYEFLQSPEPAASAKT
Assay: Degradation of BRD9 (IF), immunofluorescence in MV4-11 cells, 24 hours (Assay Protocol 2)
Type: cell-based
Design: A suspension of MV4-11 cells (ATCC CRL-9591) was prepared; host or cells: MV4-11
Conditions: BRD9 degradation; for DC50: Assay protocol 2, read-out: DC50; for Dmax: MV4-11, Assay protocol 2, read-out: Dmax
How it was run: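 MV4-11 cells treated with compound 24 h at 37° C., then fixed, permeabilised and immunostained for BRD9 (anti-BRD9 E4Q3F, Alexa 647 secondary, Hoechst counterstain). High-content imaging quantified nuclear BRD9 signal; % BRD9 remaining normalised to DMSO and 100 nM CFT-8634 controls.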

DC50 | Dmax | SMILES
0.01 to 0.025 µM | 40 to 70% | COc1cc(-c2cn(C)c(=O)c(C)c2C)cc(OC)c1CN1CCC2(CCN(c3ccc4c(c3)[C@H](C)N(C(=O)/C(C#N)=C/C(C)(C)C)CC4)C2)C1 (single isomer, unassigned) [Compound C52]
0.00125 to 0.01 µM | 70 to 75% | COc1cc(-c2cn(C)c(=O)c(C)c2C)cc(OC)c1CN1CCN(Cc2ccc3c(c2)[C@@H](C)N(C(=O)/C(C#N)=C/C(C)(C)CN2CCOCC2)CC3)C2(CC2)C1 (single isomer, unassigned) [Compound C40, (E/Z)-2-(7-((7-(2,6-dimethoxy-4-(1,4,5-trimethyl-6-oxo-1,6-dihydropyridin-3-yl)benzyl)-4,7-diazaspiro[2.5]octan-4-yl)methyl)-1-methyl-1,2,3,4-tetrahydroisoquinoline-2-carbonyl)-4,4-dimethyl-5-morpholinopent-2-enenitrile]
0.00125 to 0.01 µM | > 75% | COc1cc(-c2cn(C)c(=O)c(C)c2C)cc(OC)c1CN1CCC2(CC1)CCN(c1cccc3c1CCN(C(=O)/C(C#N)=C/C(C)(C)CF)[C@@H]3C)C2 (mixture of isomers) [Compound C48, (E/Z)-2-(5-(8-(2,6-dimethoxy-4-(1,4,5-trimethyl-4-oxo-1,6-dihydropyridin-3-yl)benzyl)-2,8-diazaspiro[4.5]decan-2-yl)-1-methyl-1,2,3,4-tetrahydroisoquinoline-2-carbonyl)-5-fluoro-4,4-dimethylpent-2-enenitrile]
< 0.00125 µM | > 75% | COc1cc(-c2cn(C)c(=O)c(C)c2C)cc(OC)c1CN1CCN(Cc2cccc3c2CCN(C(=O)/C(C#N)=C/C(C)(C)C)[C@H]3C(C)C)C2(CC2)C1 (single isomer, unassigned) [Compound C78, (E/Z)-2-(5-((7-(2,6-dimethoxy-4-(1,4,5-trimethyl-6-oxo-1,6-dihydropyridin-3-yl)benzyl)-4,7-diazaspiro[2.5]octan-4-yl)methyl)-1-isopropyl-1,2,3,4-tetrahydroisoquinoline-2-carbonyl)-4,4-dimethylpent-2-enenitrile]
0.025 to 1 µM | 40 to 70% | CC[C@H]1c2cccc(CN3CCN(Cc4c(OC)cc(-c5cn(C)c(=O)c(C)c5C)cc4OC)C4(CC4)C3)c2CCN1C(=O)/C(C#N)=C/C(C)(C)CF (single isomer, unassigned) [Compound C104, (E/Z)-2-(5-((4-(2,6-dimethoxy-4-(1,4,5-trimethyl-6-oxo-1,6-dihydropyridin-3-yl)benzyl)-4,7-diazaspiro[2.5]octan-7-yl)methyl)-1-ethyl-1,2,3,4-tetrahydroisoquinoline-2-carbonyl)-6-fluoro-4,4-dimethylpent-2-enenitrile]
0.00125 to 0.01 µM | 40 to 70% | COc1cc(-c2cn(C)c(=O)c(C)c2C)cc(OC)c1CN1CCC2(CC1)CCN(c1ccc3c(c1)[C@H](C)N(C(=O)/C(C#N)=C/C(C)(C)C)CC3)C2 (single isomer, unassigned) [Compound C66]

More lines, now with the values behind:

SMILES | DC50 | Dmax
COc1cnc(F)c(/C=C(\C#N)C(=O)N2CCc3c(CN4CCN(Cc5c(OC)cc(-c6cn(C)c(=O)c(C)c6C)cc5OC)CC4)cccc3C2C)c1 (mixture of isomers) [Compound B75, (E/Z)-2-(5-((4-(2,6-dimethoxy-4-(1,4,5-trimethyl-6-oxo-1,6-dihydropyridin-3-yl)benzyl)piperazin-1-yl)methyl)-1-methyl-1,2,3,4-tetrahydroisoquinoline-2-carbonyl)-3-(2-fluoro-5-methoxypyridin-3-yl)acrylonitrile] | 0.00125 to 0.01 µM | 40 to 70%
COc1cc(-c2cn(C)c(=O)c(C)c2C)cc(OC)c1CN1CCN(Cc2cccc3c2CCN(C(=O)/C(C#N)=C/C2(C)CCC2)C3C)CC1 (mixture of isomers) [Compound B76, (E/Z)-2-(5-((4-(2,6-dimethoxy-4-(1,4,5-trimethyl-6-oxo-1,6-dihydropyridin-3-yl)benzyl)piperazin-1-yl)methyl)-1-methyl-1,2,3,4-tetrahydroisoquinoline-2-carbonyl)-3-(1-methylcyclobutyl)acrylonitrile] | 0.00125 to 0.01 µM | 40 to 70%
COc1cc(-c2cn(C)c(=O)c(C)c2C)cc(OC)c1CN1CCN(Cc2cccc3c2CCN(C(=O)/C(C#N)=C/C(C)(C)C)C3C)[C@@H](C)C1 (mixture of isomers) [Compound B102] | 0.025 to 1 µM | > 75%
COc1cc(-c2cn(C)c(=O)c(C)c2C)cc(OC)c1CN1CCN(Cc2cccc3c2CCN(C(=O)/C(C#N)=C/C(C)(C)C)C3C)C(=O)C1 (mixture of isomers) [Compound B155, (E/Z)-2-(5-((4-(2,6-dimethoxy-4-(1,4,5-trimethyl-8-oxo-1,6-dihydropyridin-3-yl)benzyl)-2-oxopiperazin-1-yl)methyl)-1-methyl-1,2,3,4-tetrahydroisoquinoline-2-carbonyl)-4,4-dimethylpent-2-enenitrile] | 0.025 to 1 µM | 40 to 70%
COc1cc(-c2cn(C)c(=O)c3[nH]ncc23)cc(OC)c1CN1CCN(Cc2cccc3c2CCN(C(=O)/C(C#N)=C/C(C)(C)C)C3C)C2(CC2)C1 (mixture of isomers) [Compound B104, (E/Z)-2-(5-((7-(2,6-dimethoxy-4-(6-methyl-7-oxo-6,7-dihydro-1H-pyrazolo[3,4-c]pyridin-4-yl)benzyl)-4,7-diazaspiro[2.5]octan-4-yl)methyl)-1-methyl-1,2,3,4-tetrahydroisoquinoline-2-carbonyl)-4,4-dimethylpent-2-enenitrile] | < 0.00125 µM | > 75%
COc1cc(-c2cn(C)c(=O)c(C)c2C)cc(OC)c1CN1CCN(Cc2cccc3c2CCN(C(=O)/C(C#N)=C/c2cccc(C#N)c2)C3C)CC1 (mixture of isomers) [Compound B74, (E/Z)-3-(2-cyano-3-(5-((4-(2,6-dimethoxy-4-(1,4,5-trimethyl-6-oxo-1,6-dihydropyridin-3-yl)benzyl)piperazin-1-yl)methyl)-1-methyl-3,4-dihydroisoquinolin-2(1H)-yl)-3-oxoprop-1-en-1-yl) benzonitrile] | < 0.00125 µM | 40 to 70%
COc1cc(-c2cn(C)c(=O)c(C)c2C)cc(OC)c1CN1CCC(Oc2cccc3c2CCN(C(=O)/C(C#N)=C/C(C)(C)C)C3C)C1 (stereo in doubt) [Compound B134, (E)-2-(5-(((S)-1-(2,6-dimethoxy-4-(1,4,5-trimethyl-6-oxo-1,6-dihydropyridin-3-yl)benzyl)pyrrolidin-3-yl)oxy)-1-methyl-1,2,3,4-tetrahydroisoquinoline-2-carbonyl)-4,4-dimethylpent-2-enenitrile] | 0.025 to 1 µM | 40 to 70%
CC[C@H]1CN(Cc2c(OC)cc(-c3cn(C)c(=O)c(C)c3C)cc2OC)CCN1Cc1cccc2c1CCN(C(=O)/C(C#N)=C/C(C)(C)C)C2C (mixture of isomers) [Compound B113, (E/Z)-2-(5-(((S)-4-(2,6-dimethoxy-4-(1,4,5-trimethyl-6-oxo-1,6-dihydropyridin-3-yl)benzyl)-2-ethylpiperazin-1-yl)methyl)-1-methyl-1,2,3,4-tetrahydroisoquinoline-2-carbonyl)-4,4-dimethylpent-2-enenitrile] | 0.00125 to 0.01 µM | > 75%
COc1cc(-c2cn(C)c(=O)c(C)c2C)cc(OC)c1CN1CC[C@H](Oc2cccc(C3CCCN3C(=O)/C(C#N)=C/C(C)(C)C)c2)C1 (mixture of isomers) [Compound B67, (E/Z)-2-(2-(3-(((S)-1-(2,6-dimethoxy-4-(1,4,5-trimethyl-6-oxo-1,6-dihydropyridin-3-yl)benzyl)417yrrolidine-3-yl)oxy)phenyl)pyrrolidine-1-carbonyl)-4,4-dimethylpent-2-enenitrile] | 0.00125 to 0.01 µM | > 75%
COc1cc(-c2cn(C)c(=O)c(C)c2C)cc(OC)c1CN1CCN(Cc2cccc3c2CCN(C(=O)/C(C#N)=C/c2cccc(F)c2F)C3C)CC1 (mixture of isomers) [Compound B91, (E/Z)-3-(2,3-difluorophenyl)-2-(5-((4-(2,6-dimethoxy-4-(1,4,5-trimethyl-6-oxo-1,6-dihydropyridin-3-yl)benzyl)piperazin-1-yl)methyl)-1-methyl-1,2,3,4-tetrahydroisoquinoline-2-carbonyl)acrylonitrile] | 0.00125 to 0.01 µM | 40 to 70%
COc1cc(-c2cn(C)c(=O)c3[nH]ncc23)cc(OC)c1CN1CCN(C(=O)/C(C#N)=C/C(C)(C)C)CC1 [Compound B215, (E/Z)-2-(4-(2,6-dimethoxy-4-(6-methyl-7-oxo-6,7-dihydro-1H-pyrazolo[3,4-c]pyridin-4-yl)benzyl)piperazine-1-carbonyl)-4,4-dimethylpent-2-enenitrile] | 0.025 to 1 µM | 40 to 70%
COc1cc(-c2cn(C)c(=O)c(C)c2C)cc(OC)c1CN1CCN(CCc2cccc3c2CCN(C(=O)/C(C#N)=C/C(C)(C)C)C3C)C2(CC2)C1 (mixture of isomers) [Compound B154] | 0.01 to 0.025 µM | 40 to 70%
